Series [1] has as its system Rat Carrageenin Paw Edema. The experiment in a line: Rat Carrageenin Paw Edema Inhibitory Activity. Type of series: in vivo. The conditions noted are these: Jcl:SD rats, 50 mg/kg orally, 3 hours after carrageenin. The procedure: Rat Carrageenin Paw Edema Inhibitory Activity
The volume of a planter part of a right hind leg of Jcl:SD rats (male, 6 weeks old) was measured, and then suspension of a test drug (50 mg/kg) in 5% acacia was administered orally. Then water was administered additionally so that the total amount of administered liquid became 5 ml/rat. After 1 hour, a suspension (0.05 ml) containing 1% carrageenin in physiological saline was injected intradermally into the plantar to induce swelling [Winter, C. A. et al; Proc. Soc. Exp. Biol. Med., 111, 544 (1962)]. The volume of the right hind leg was measured again 3 hours after the carrageenin injection, and swelling inhibitory rate was calculated from the difference in the volumes before and after the injection.
A general note: The carrageenan paw model is a standard test of acute inflammation.

The subject of series [2] is mouse phenylquinone writhing. The experiment in a line: Analgesic Activity in Mice (phenylquinone writhing model). Type of series: in vivo. Particulars: Slc:ICR mice, 50 mg/kg orally, 20 minutes. The procedure:
Analgesic Activity in Mice
A drug (50 mg/kg) suspended in 5% acacia was administered orally to Slc:ICR mice (male, 4 weeks old). After 30 minutes, a 0.02% phenylquinone solution (0.1 ml/[…]) in 5% ethanol was administered intraperitoneally. Writhing and stretching reactions for 20 minutes after the injection were calculated for each mouse to evaluate analgesic activity of the test drug [Siegmund, E. et al.; Proc. Soc. Exp. Biol. Med., 95, 729 (1957)].

Another series concerns IL-1β. The experiment in a line: Anti-IL-1 activity (extracellular substrates of rat cartilage cells). Type of series: cell-based. Particulars: 72 h, IL-1β 0.2 ng/ml, 3 days, read-out: IL-1 inhibitory activity (%). Here is the method:
Rat cartilage cells were prepared according to the known method [Fujio Suzuki et al., Sin Seikagaku Jikken Kohza, 18, p.871-875 (1990)] and cultivated in Dulbecco's Medium containing 10% fetal bovine serum. After 8 days, various concentrations of a test drug and IL-1β (0.2 ng/ml) were added, and the cells were cultivated for additional 3 days. The amount of extracellular substrates thus produced was determined.
Although IL-1β inhibits the synthesis of extracellular substrates of cartilage cells, addition of the drug inhibits the IL-1 activity and the amount of extracellular substrates synthesized was recovered.

A further series concerns Rat Adjuvant Arthritis. The experiment in a line: Effects on Rat Adjuvant Arthritis. The class given is in vivo. The conditions noted are these: 336 h, Lewis rats, 50 mg/kg once a day for 14 days.
Series [3] concerns Antigen-responsive T cell. The experiment in a line: Antigen-Responsive T Cell Growth Inhibitory Activity (PPD-stimulated 3H-Tdr incorporation). The class given is cell-based, Lewis rats. Particulars: PPD 2 μg/ml, Lewis rat T cells, read-out: Antigen-responsive T cell growth inhibitory rate (%). The procedure: Antigen-Responsive T Cell Growth Inhibitory Activity
According to the method of Test Example 1, adjuvant arthritis was induced in Lewis rats (male, 7 weeks old). After 14 days, lymphonodi inguinales were excised. Then, a single-cell suspension was prepared by using RPMI-1640 medium containing 5% fetal bovine serum and then incubated at 37° C. for 1 hour in a nylon wool column. The cells were eluted from the column with the same medium. The non-adsorptive cell-fraction was used as T cells.
On the other hand, spleen cells were taken out from unsensitized Lewis rats (male, 8 to 9 weeks old) and irradiated with soft X-rays (20,000 R). To the spleen cells (1×10^5 cells/well) were added the above T cells (5×10^5 cells/well), PPD (Purified Protein Derivatives; final concentration: 2 μg/ml) and 2% Lewis rat serum (treated at 56° C. for 30 minutes). The mixture was incubated at 37° C. for 72 hours in a 5% carbonic acid incubator. Further, ^3 H-Tdr (0.5 μCi/well) was added followed by incubation for 24 hours. The cells were recovered, and the radioactivity of ^3 H-Tdr incorporated into the cells was determined. The test drug was added to the cell suspension just before the addition of PPD, and effects on incorporation of ^3 H-Tdr into the cells were observed.

A further series concerns mice. As to the kind of experiment: Oral toxicity in mice. The class given is in vivo. Particulars: 300 mg/kg administered orally to mice. Here is the method: The compounds of the present invention have low toxicity. For example, when 300 mg/kg of the compounds prepared in Examples 36, 45, 47, 54 and 64 were administered orally to mice, no mice died. Therefore, the compounds of the present invention are useful as an anti-inflammatory agent, particularly an agent for treating arthritis producing inflammatory symptoms, in humans and other mammals.

This note sets out measurements from patent US5948782A, “Pharmaceutical composition containing quinoline and quinazoline derivatives and novel compounds therefor” (Takeda Chemical, priority 1992, dated 1999).

With `CCOC(=O)c1c(C[S+]([O-])c2nc3ccccc3[nH]2)nc2cc(OC)c(OC)cc2c1-c1ccc(OC)c(OC)c1` (stereo not drawn) [Example 3, ethyl 2-[(2-benzimidazolyl)sulfinylmethyl]-6,7-dimethoxy-4-(3,4-dimethoxyphenyl)quinoline-3-carboxylate], the “Swelling inhibitory rate (%)” value in series [1] is 23%.
With `CCOC(=O)c1c(CSc2nc3ccccc3[nH]2)nc2cc(OC)c(OC)cc2c1-c1ccc(OC)cc1` [Example 27, ethyl 6,7-dimethoxy-4-(4-methoxyphenyl)-2-[(benzimidazol-2-yl)thiomethyl]quinoline-3-carboxylate], the “Inhibitory rate (%)” value in series [2] stood at 39%.
For `CCOC(=O)c1c(CSc2nccn2C)nc2cc(OC)c(OC)cc2c1-c1ccc(OC)cc1` [Example 28, ethyl 6,7-dimethoxy-4-(4-methoxyphenyl)-2-[(1-methylimidazol-2-yl)thiomethyl]quinoline-3-carboxylate], the “Inhibitory rate (%)” value in series [2] was 43%. Also, in the series with IL-1β, the inhibition at 1 µM is 34% and the inhibition at 10 µM worked out at 44%.
For `CCOC(=O)c1c(CSc2nccn2C)nc2cc(OC)c(OC)cc2c1-c1ccc(OC)c(OC)c1` [Example 36, ethyl 6,7-dimethoxy-4-(3,4-dimethoxyphenyl)-2-[(1-methylimidazol-2-yl)thiomethyl]quinoline-3-carboxylate], the change in vivo at 50 mg/kg in the series on Rat Adjuvant Arthritis (based on drug-unadministered rats, read-out: Increase rate of body weight (%)) was 30%. Further, in the series on Rat Adjuvant Arthritis (left hind leg, 14th day, read-out: Swelling inhibitory rate (%)), the inhibition in vivo at 50 mg/kg stood at 48%. Besides, the “Inhibitory rate (%)” value in series [2] was 59%. Further, the inhibition at 1 µM came to 22% in the series on IL-1β and 33% in series [3]. Besides, the inhibition at 10 µM in the series with IL-1β is 48%; in series [3], 79%. In addition, the mortality entry in the series with mice is “no mice died”.
`CCOC(=O)c1c(CSc2ccc(Cl)cc2)nc2cc(OC)c(OC)cc2c1-c1ccc(OC)c(OC)c1` [Example 42, ethyl 6,7-dimethoxy-4-(3,4-dimethoxyphenyl)-2-[(4-chlorophenyl)thiomethyl]quinoline-3-carboxylate]: the “Inhibitory rate (%)” value in series [2] stood at 47%.
For `CCOC(=O)c1c(CSc2nccc(=O)[nH]2)nc2cc(OC)c(OC)cc2c1-c1ccc(OC)c(OC)c1` [Example 45, ethyl 6,7-dimethoxy-4-(3,4-dimethoxyphenyl)-2-[(6(1H)-pyrimidon-2-yl)thiomethyl]quinoline-3-carboxylate], in series [3], the inhibition at 1 µM turned out to be 36% and the inhibition at 10 µM amounted to 70%. In the series with mice, the mortality entry is on record as “no mice died”.
Turning to `CCOC(=O)c1c(CSC2=NCCS2)nc2cc(OC)c(OC)cc2c1-c1ccc(OC)c(OC)c1` [Example 47, ethyl 6,7-dimethoxy-4-(3,4-dimethoxyphenyl)-2-[(2-thiazolin-2-yl)thiomethyl]quinoline-3-carboxylate], in series [3], the inhibition at 1 µM was found to be 61% and the inhibition at 10 µM was 93%. In addition, the mortality result in the series with mice is reported as “no mice died”.
In the case of `CCOC(=O)c1c(CSc2nc3ccc(F)cc3[nH]2)nc2cc(OC)c(OC)cc2c1-c1ccc(OC)c(OC)c1` [Example 54, ethyl 6,7-dimethoxy-4-(3,4-dimethoxyphenyl)-2-[(5-fluorobenzimidazol-2-yl)thiomethyl]quinoline-3-carboxylate], the “Swelling inhibitory rate (%)” value in series [1] came out at 21%. The mortality result in the series on mice is on record as “no mice died”.
Take `CCOC(=O)c1c(CSc2nc3ccccc3s2)nc2cc(OC)c(OC)cc2c1-c1ccc(OC)c(OC)c1` [Example 60, ethyl 6,7-dimethoxy-4-(3,4-dimethoxyphenyl)-2-[(benzothiazol-2-yl)thiomethyl]quinoline-3-carboxylate]: in series [1], the “Swelling inhibitory rate (%)” value is given as 31%. For the same compound, in series [3], the inhibition at 1 µM was 59% and the inhibition at 10 µM came out at 91%.
On to `CCOC(=O)c1c(CSc2nc3ccccc3c(=O)[nH]2)nc2cc(OC)c(OC)cc2c1-c1ccc(OC)c(OC)c1` [Example 64, ethyl 6,7-dimethoxy-4-(3,4-dimethoxyphenyl)-2-[(3,4-dihydro-4-oxoquinazolin-2-yl)thiomethyl]quinoline-3-carboxylate], for which the “Swelling inhibitory rate (%)” value in series [1] was found to be 36%. Besides, the “Inhibitory rate (%)” value in series [2] amounted to 27%. For the same compound, in the series with IL-1β, the inhibition at 1 µM is 23% and the inhibition at 10 µM worked out at 50%. Besides, in series [3], the inhibition at 1 µM worked out at 53% and the inhibition at 10 µM came to 78%. The mortality entry with mice is “no mice died”.
On to `CCOC(=O)c1c(CSc2nnc3ccccn23)nc2cc(OC)c(OC)cc2c1-c1ccc(OC)c(OC)c1` [Example 66, ethyl 6,7-dimethoxy-4-(3,4-dimethoxyphenyl)-2-[(pyrido[1,2-a][1,3,4]triazol-5-yl)thiomethyl]quinoline-3-carboxylate], for which the “Inhibitory rate (%)” value in series [2] is recorded as 58%.
